For 6 molecules, IC50 results are on record in ChEMBL document CHEMBL6109163, “6-Aryl Isoindolin-1-ones: Novel mGluR2 Negative Allosteric Modulators” (ACS Med Chem Lett, 2025).

The target of assay [1] is Metabotropic glutamate receptor 3 (Rattus norvegicus, UniProt P31422). The assay is described as follows: Negative allosteric modulator activity at rat mGluR3 receptor by TI flux assay-based fluorescence analysis.
Assay [2] deals with Metabotropic glutamate receptor 2 (Rattus norvegicus, UniProt P31421). The assay can be described thus: Negative allosteric modulator activity at glutamate-stimulated rat mGluR2 receptor expressed in HEK293 cells assessed as inhibition of thallium flux preincubated for 2 mins 20 secs followed by glutamate addition and measured for 2.5 mins by fluorescence based analysis. It is filed as cell-based.
Chain of Metabotropic glutamate receptor 2 (P31421 whole entry): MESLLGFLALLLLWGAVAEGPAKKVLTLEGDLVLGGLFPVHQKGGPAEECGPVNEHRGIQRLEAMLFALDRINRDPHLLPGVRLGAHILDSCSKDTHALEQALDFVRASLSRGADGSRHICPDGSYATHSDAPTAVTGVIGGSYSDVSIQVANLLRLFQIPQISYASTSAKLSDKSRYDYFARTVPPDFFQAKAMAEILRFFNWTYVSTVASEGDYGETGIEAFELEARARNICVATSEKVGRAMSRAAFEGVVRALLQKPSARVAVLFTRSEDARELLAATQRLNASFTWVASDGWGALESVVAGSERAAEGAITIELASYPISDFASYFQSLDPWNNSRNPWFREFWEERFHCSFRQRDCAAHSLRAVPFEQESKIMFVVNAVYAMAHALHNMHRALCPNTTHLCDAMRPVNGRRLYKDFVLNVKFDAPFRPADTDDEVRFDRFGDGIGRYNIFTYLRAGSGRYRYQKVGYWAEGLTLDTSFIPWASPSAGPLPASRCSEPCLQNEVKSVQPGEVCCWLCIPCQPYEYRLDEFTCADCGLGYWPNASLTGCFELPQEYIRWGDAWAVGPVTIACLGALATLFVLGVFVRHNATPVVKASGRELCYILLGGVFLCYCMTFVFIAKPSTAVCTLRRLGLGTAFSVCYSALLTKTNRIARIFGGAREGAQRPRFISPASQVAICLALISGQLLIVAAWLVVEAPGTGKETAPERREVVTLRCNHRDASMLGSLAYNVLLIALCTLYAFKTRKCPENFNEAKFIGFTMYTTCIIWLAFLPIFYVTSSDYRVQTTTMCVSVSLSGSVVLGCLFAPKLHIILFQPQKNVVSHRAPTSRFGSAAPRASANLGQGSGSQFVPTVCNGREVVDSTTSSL

Chain of Metabotropic glutamate receptor 3 (P31422 whole entry): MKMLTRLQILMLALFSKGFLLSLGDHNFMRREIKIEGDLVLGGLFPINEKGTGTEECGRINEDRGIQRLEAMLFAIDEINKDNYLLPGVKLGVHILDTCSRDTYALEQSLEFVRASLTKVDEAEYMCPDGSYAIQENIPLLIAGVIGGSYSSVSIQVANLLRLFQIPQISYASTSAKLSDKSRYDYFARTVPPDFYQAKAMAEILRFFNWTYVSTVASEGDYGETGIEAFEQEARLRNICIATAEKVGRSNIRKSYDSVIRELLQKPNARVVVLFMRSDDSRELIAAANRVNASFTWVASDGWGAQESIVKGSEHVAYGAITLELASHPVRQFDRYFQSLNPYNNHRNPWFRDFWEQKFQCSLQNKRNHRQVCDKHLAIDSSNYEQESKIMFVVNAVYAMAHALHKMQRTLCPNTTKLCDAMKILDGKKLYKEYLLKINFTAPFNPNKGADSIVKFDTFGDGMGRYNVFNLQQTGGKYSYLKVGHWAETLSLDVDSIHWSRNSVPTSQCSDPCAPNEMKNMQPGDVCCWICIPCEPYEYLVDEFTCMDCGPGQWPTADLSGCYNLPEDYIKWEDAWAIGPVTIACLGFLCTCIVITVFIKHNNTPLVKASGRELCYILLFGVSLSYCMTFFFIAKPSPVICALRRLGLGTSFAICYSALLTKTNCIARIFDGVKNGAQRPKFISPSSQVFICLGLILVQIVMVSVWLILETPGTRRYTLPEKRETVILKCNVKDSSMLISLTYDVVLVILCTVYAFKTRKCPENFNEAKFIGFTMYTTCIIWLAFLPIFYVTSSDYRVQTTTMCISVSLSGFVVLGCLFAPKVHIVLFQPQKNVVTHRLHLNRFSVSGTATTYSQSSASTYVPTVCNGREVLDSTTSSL

For the molecule `Cc1ccc(-c2cc3c(cc2-c2ccc(F)cc2)C(=O)NC3)nc1`, the IC50 in assay [1] was over 10 µM.

For the molecule `N#Cc1cccc(-c2cc3c(cc2-c2ccc(F)cc2F)C(=O)NC3)c1F`, the IC50 in assay [1] is over 10 µM.

Take `Cc1ccc(-c2cc3c(cc2-c2ccc(F)cc2)C(=O)NC3)cn1`: the IC50 in assay [1] is over 10 µM; in assay [2] it was 659 nM.

Turning to `O=C1NCc2cc(-c3cccnc3C3CC3)c(-c3ccc(F)cc3F)cc21`, the IC50 is over 10 µM in assay [1] and 693 nM in assay [2].

In assay [1], `O=C1NCc2cc(-c3cnc4[nH]ccc4c3)c(-c3ccc(F)cc3F)cc21` returned an IC50 of over 10 µM.

On to `O=C1NCc2cc(C3CCOCC3)c(-c3ccc(F)cc3)cc21`, for which, in assay [1], the IC50 is over 10 µM.

Usually IC50 stands for the concentration at which inhibition is half-maximal.
